Our source for the T/C values is PubChem BioAssay AID194 (DTP/NCI, 2004).

The structures appear in SMILES notation. “And” between values parts separate entries of the source, which are not always exact repeats. Equal values may be shown once. Inconclusive results are not listed. *1 amine or outer side, *2 acyl side, *3 side chain or, on linkers, in order; H or OH if unused. Where a SMILES comes first, the peptide text is derived from it. Bridges are numbered along the chain shown (N, C = ends). Roman numbers before positions name the chains, in order. [ ]: non-standard residue; d: D form. Actinocin(9to1) = Cc1c2oc3c(C)ccc(C(=O)[*:1])c3nc-2c(C(=O)[*:2])c(N)c1=O; aThr = C[C@H](O)[C@H](N)C(=O)O; NMeV = CN[C@H](C(=O)O)C(C)C; Sar = CNCC(=O)O

The test system of this assay is BDF1 mice, B16 melanoma s.c., survival/tumor T/C. Nature of the assay: NCI In Vivo Anticancer Drug Screen. Data for tumor model B16 Melanoma (subcutaneous) in B6D2F1 (BDF1) mice. On the procedure:
The antitumor activity of compounds was measured in mice bearing transplantable tumors. Survival or tumor size were measured and the results are expressed as the measurement made in the treated group (T) divided by the measurement made in the vehicle treated control group (C). The tumor model used in this assay is B16 Melanoma (subcutaneous) in B6D2F1 (BDF1) mice

The mark [1] stands for this setting: endpoint: median survival time, dose: 1.0 mg/kg/injection, schedule: Q01DX009 (ip), vehicle: saline, higher = longer survival.
The mark [2] stands for this setting: endpoint: median survival time, dose: 2.0 mg/kg/injection, schedule: Q01DX009 (ip), vehicle: saline, higher = longer survival.
[3] abbreviates: endpoint: median survival time, dose: 4.0 mg/kg/injection, schedule: Q01DX009 (ip), vehicle: saline, higher = longer survival.
The mark [4] stands for this setting: endpoint: median survival time, dose: 8.0 mg/kg/injection, schedule: Q01DX009 (ip), vehicle: saline, higher = longer survival.
[5] abbreviates: endpoint: median survival time, dose: 16.0 mg/kg/injection, schedule: Q01DX009 (ip), vehicle: saline, higher = longer survival.

`CN1c2c(nc(N)[nH]c2=O)NCC1CCNc1ccc(C(=O)NC(CCC(=O)O)C(=O)O)cc1` (stereo not drawn): the T/C is, setting by setting: (endpoint: median survival time, dose: 600.0 mg/kg/injection, schedule: Q04DX003 (ip), vehicle: saline, higher = longer survival) 118 % of control and 123 % of control; (endpoint: median survival time, dose: 800.0 mg/kg/injection, schedule: Q01DX001 (ip), vehicle: saline, higher = longer survival) 108 % of control; (endpoint: median survival time, dose: 800.0 mg/kg/injection, schedule: Q04DX003 (ip), vehicle: saline, higher = longer survival) 113 % of control; (endpoint: median survival time, dose: 900.0 mg/kg/injection, schedule: Q04DX003 (ip), vehicle: saline, higher = longer survival) 159 % of control; (endpoint: median survival time, dose: 1200.0 mg/kg/injection, schedule: Q01DX001 (ip), vehicle: saline, higher = longer survival) 119 % of control and 121 % of control; (endpoint: median survival time, dose: 1800.0 mg/kg/injection, schedule: Q01DX001 (ip), vehicle: saline, higher = longer survival) 121 % of control. In addition, the T/C (endpoint: median survival time, dose: 2400.0 mg/kg/injection, schedule: Q01DX001 (ip), vehicle: saline, higher = longer survival) was 121 % of control.
With `O=C1c2ccccc2C(=O)c2c(NCCNCCO)ccc(NCCNCCO)c21`, the T/C is, setting by setting: (endpoint: median survival time, dose: 0.5 mg/kg/injection, schedule: Q01DX009 (ip), vehicle: saline with Tween-80, higher = longer survival) 106 % of control and 119 % of control; (endpoint: median survival time, dose: 0.5 mg/kg/injection, schedule: Q01DX009 (ip), vehicle: saline, higher = longer survival) 111 % of control; (endpoint: median survival time, dose: 1.0 mg/kg/injection, schedule: Q01DX009 (ip), vehicle: saline with Tween-80, higher = longer survival) 93 % of control and 115 % of control; under setting [1], 104 % of control and 110 % of control; (endpoint: median survival time, dose: 1.0 mg/kg/injection, schedule: Q02DX009 (ip), vehicle: saline, higher = longer survival) 100 % of control; (endpoint: median survival time, dose: 2.0 mg/kg/injection, schedule: Q01DX009 (ip), vehicle: saline with Tween-80, higher = longer survival) 101 % of control and 108 % of control. In addition, the T/C is 100 % of control and 104 % of control and 107 % of control under setting [2]; 92 % of control under setting [3]; 94 % of control (endpoint: median survival time, dose: 4.0 mg/kg/injection, schedule: Q02DX009 (ip), vehicle: Klucel (hydroxypropylcellulose) (HPC), higher = longer survival); 154 % of control (endpoint: median survival time, dose: 4.0 mg/kg/injection, schedule: Q02DX009 (ip), vehicle: saline, higher = longer survival); 104 % of control (endpoint: median survival time, dose: 8.0 mg/kg/injection, schedule: Q01DX009 (ip), vehicle: Klucel (hydroxypropylcellulose) (HPC), higher = longer survival); 107 % of control under setting [4]. Moreover, the T/C (endpoint: median survival time, dose: 8.0 mg/kg/injection, schedule: Q02DX009 (ip), vehicle: Klucel (hydroxypropylcellulose) (HPC), higher = longer survival) was 117 % of control; the T/C (endpoint: median survival time, dose: 8.0 mg/kg/injection, schedule: Q02DX009 (ip), vehicle: saline, higher = longer survival) is 110 % of control; the T/C (endpoint: median survival time, dose: 8.0 mg/kg/injection, schedule: Q02DX009 (ip), vehicle: water, higher = longer survival) was 107 % of control; the T/C (endpoint: median survival time, dose: 13.0 mg/kg/injection, schedule: Q01DX009 (ip), vehicle: Klucel (hydroxypropylcellulose) (HPC), higher = longer survival) was 104 % of control; the T/C (endpoint: median survival time, dose: 16.0 mg/kg/injection, schedule: Q01DX009 (ip), vehicle: Klucel (hydroxypropylcellulose) (HPC), higher = longer survival) was 152 % of control; the T/C under setting [5] is 117 % of control. Besides, the T/C is 113 % of control (endpoint: median survival time, dose: 16.0 mg/kg/injection, schedule: Q02DX009 (ip), vehicle: Klucel (hydroxypropylcellulose) (HPC), higher = longer survival); 95 % of control and 106 % of control (endpoint: median survival time, dose: 16.0 mg/kg/injection, schedule: Q02DX009 (ip), vehicle: water, higher = longer survival); 97 % of control (endpoint: median survival time, dose: 43.0 mg/kg/injection, schedule: Q04DX003 (ip), vehicle: Klucel (hydroxypropylcellulose) (HPC), higher = longer survival); 91 % of control (endpoint: median survival time, dose: 74.0 mg/kg/injection, schedule: Q01DX001 (ip), vehicle: Klucel (hydroxypropylcellulose) (HPC), higher = longer survival); 64 % of control (endpoint: median tumor weight (est.), dose: 13.0 mg/kg/injection, schedule: Q01DX009 (ip), vehicle: Klucel (hydroxypropylcellulose) (HPC), higher = larger tumour); 52 % of control (endpoint: median tumor weight (est.), dose: 43.0 mg/kg/injection, schedule: Q04DX003 (ip), vehicle: Klucel (hydroxypropylcellulose) (HPC), higher = larger tumour).
Consider `COc1ccc(C[C@H](N)C(=O)NC2C(CO)OC(n3cnc4c(N(C)C)ncnc43)C2O)cc1` (stereo partly drawn), for which the T/C was 151 % of control under setting [4]; 96 % of control under setting [5]; 107 % of control (endpoint: median survival time, dose: 32.0 mg/kg/injection, schedule: Q01DX009 (ip), vehicle: saline, higher = longer survival).
For `CC(=O)O[C@]1(C(C)=O)CC[C@H]2[C@@H]3C[C@H](C)C4=CC(=O)CC[C@]4(C)[C@H]3CC[C@@]21C`, the T/C by setting is: (endpoint: median survival time, dose: 100.0 mg/kg/injection, schedule: Q01DX009 (ip), vehicle: Klucel (hydroxypropylcellulose) (HPC), higher = longer survival) 111 % of control and 112 % of control; (endpoint: median survival time, dose: 200.0 mg/kg/injection, schedule: Q01DX009 (ip), vehicle: Klucel (hydroxypropylcellulose) (HPC), higher = longer survival) 86 % of control and 102 % of control; (endpoint: median survival time, dose: 400.0 mg/kg/injection, schedule: Q01DX009 (ip), vehicle: Klucel (hydroxypropylcellulose) (HPC), higher = longer survival) 96 % of control and 102 % of control; (endpoint: median survival time, dose: 800.0 mg/kg/injection, schedule: Q01DX009 (ip), vehicle: Klucel (hydroxypropylcellulose) (HPC), higher = longer survival) 104 % of control and 111 % of control.
For `N[C@H](C(=O)O)[C@@H]1CC(Cl)=NO1`, the T/C runs as follows: under setting [1], 87 % of control and 114 % of control; (endpoint: median survival time, dose: 1.4 mg/kg/injection, schedule: Q01DX009 (ip), vehicle: saline, higher = longer survival) 116 % of control; under setting [2], 95 % of control and 105 % of control; (endpoint: median survival time, dose: 2.1 mg/kg/injection, schedule: Q01DX009 (ip), vehicle: saline, higher = longer survival) 120 % of control; (endpoint: median survival time, dose: 3.2 mg/kg/injection, schedule: Q01DX009 (ip), vehicle: saline, higher = longer survival) 124 % of control; under setting [3], 90 % of control. The T/C is, setting by setting: under setting [4], 108 % of control; under setting [5], 101 % of control; (endpoint: median survival time, dose: 27.0 mg/kg/injection, schedule: Q04DX003 (ip), vehicle: saline, higher = longer survival) 120 % of control; (endpoint: median survival time, dose: 40.0 mg/kg/injection, schedule: Q01DX001 (ip), vehicle: saline, higher = longer survival) 103 % of control; (endpoint: median survival time, dose: 40.0 mg/kg/injection, schedule: Q04DX003 (ip), vehicle: saline, higher = longer survival) 119 % of control; (endpoint: median survival time, dose: 60.0 mg/kg/injection, schedule: Q01DX001 (ip), vehicle: saline, higher = longer survival) 113 % of control. Besides, the T/C reads like this: (endpoint: median survival time, dose: 60.0 mg/kg/injection, schedule: Q04DX003 (ip), vehicle: saline, higher = longer survival) 124 % of control; (endpoint: median survival time, dose: 90.0 mg/kg/injection, schedule: Q01DX001 (ip), vehicle: saline, higher = longer survival) 112 % of control.
For the compound `Cc1c2oc3c(C)ccc(C(=O)N[C@@H]4C(=O)N[C@H](C(C)C)C(=O)N5CCC[C@H]5C(=O)N(C)CC(=O)N(C)[C@@H](C(C)C)C(=O)O[C@H]4C)c3nc-2c(C(=O)N[C@@H]2C(=O)N[C@H](C(C)C)C(=O)N3CCC[C@H]3C(=O)N(C)CC(=O)N(C)[C@@H](C(C)C)C(=O)O[C@H]2C)c(N)c1=O` (I: [aThr][dV]P[Sar][NMeV] / II: [aThr][dV]P[Sar][NMeV]; ester I:1-I:C, II:1-II:C; linker I:N-II:N via Actinocin(9to1)), the T/C (endpoint: median tumor weight (est.), dose: 100.0 micrograms/kg/injection, schedule: Q01DX009 (ip), vehicle: saline, higher = larger tumour) is 38 % of control.
`CCC1(O)CC2CN(CCc3c([nH]c4ccccc34)C(C(=O)OC)(c3cc4c(cc3OC)N(C)C3C(O)(C(N)=O)C(O)C5(CC)C=CCN6CCC43C65)C2)C1` (stereo not drawn) (tested in a mixture with another compound): the T/C (endpoint: median survival time, dose: 1.8 mg/kg/injection, schedule: Q04DX003 (ip), vehicle: water, higher = longer survival) is 87 % of control.
In the case of `CCCCS(=N)(=O)CC[C@H](N)C(=O)O` (stereo partly drawn), the T/C reads like this: (endpoint: median survival time, dose: 444.0 mg/kg/injection, schedule: Q04HX003 (ip), vehicle: saline, higher = longer survival) 104 % of control; (endpoint: median survival time, dose: 888.0 mg/kg/injection, schedule: Q04HX003 (ip), vehicle: saline, higher = longer survival) 100 % of control; (endpoint: median survival time, dose: 1776.0 mg/kg/injection, schedule: Q04HX003 (ip), vehicle: saline, higher = longer survival) 102 % of control.
As for `COC(=O)c1csc(-c2csc(CCN)n2)n1`, the T/C (endpoint: median survival time, dose: 6.25 mg/kg/injection, schedule: Q01DX009 (ip), vehicle: water, higher = longer survival) is 89 % of control; the T/C (endpoint: median survival time, dose: 12.5 mg/kg/injection, schedule: Q01DX009 (ip), vehicle: water, higher = longer survival) is 98 % of control; the T/C (endpoint: median survival time, dose: 25.0 mg/kg/injection, schedule: Q01DX009 (ip), vehicle: water, higher = longer survival) is 91 % of control; the T/C (endpoint: median survival time, dose: 50.0 mg/kg/injection, schedule: Q01DX009 (ip), vehicle: water, higher = longer survival) is 117 % of control; the T/C (endpoint: median survival time, dose: 100.0 mg/kg/injection, schedule: Q01DX009 (ip), vehicle: water, higher = longer survival) was 102 % of control.
On to `O=c1n(CC2CO2)c(=O)n(CC2CO2)c(=O)n1CC1CO1` (stereo not drawn), for which the T/C (endpoint: median survival time, dose: 20.0 mg/kg/injection, schedule: Q01DX011 (ip), vehicle: saline, higher = longer survival) was 109 % of control and the T/C (endpoint: median survival time, dose: 40.0 mg/kg/injection, schedule: Q01DX011 (ip), vehicle: saline, higher = longer survival) is 155 % of control.
On to `ClCC[N-]CC[N-]CCCl.ClCC[N-]CC[N-]CCCl.[O-][Cl+3]([O-])([O-])O.[Zn+2]`, for which the T/C reads like this: (endpoint: median survival time, dose: 2.5 mg/kg/injection, schedule: Q01DX009 (ip), vehicle: saline with Tween-80, higher = longer survival) 102 % of control; (endpoint: median survival time, dose: 5.0 mg/kg/injection, schedule: Q01DX009 (ip), vehicle: saline with Tween-80, higher = longer survival) 94 % of control; (endpoint: median survival time, dose: 10.0 mg/kg/injection, schedule: Q01DX009 (ip), vehicle: saline with Tween-80, higher = longer survival) 115 % of control; (endpoint: median survival time, dose: 20.0 mg/kg/injection, schedule: Q01DX009 (ip), vehicle: saline with Tween-80, higher = longer survival) 89 % of control.
